Source: patent US4087432A, “1H-imidazo(4,5-b)pyridine compounds” (Eli Lilly and Company, priority 1975, dated 1978)

Experiments:
Assay type in all cases: in vivo
Settings in all cases: alone
[1] = tested on: Rice; experiment: General herbicidal effect alone/in combination, rice; set-up: key: 0-10 scale: 0 = no injury, 10 = death
Protocol: (§1) Various of the compounds to be employed as active agent in accordance with the present invention were evaluated for preemergent application to various species of plants. In this evaluation, a soil was prepared consisting of one part masonry sand and one part shredded top soil blended together in a cement mixer. One gallon of this soil was placed in a 25 × 35 cm. galvanized flat and was patted down with a bench brush until level. A three-row marker was used to make 21/2 cm. deep furrows in approximately two-fifths of the flat. Crop seeds consisting of four kernels of corn, five cotton seeds and five soybean seeds were placed in these furrows. A four-row template was then placed on the remaining soil and the indicated approximate numbers of each of the following seeds were planted, one species to each section: foxtail (millet), 80-100 seeds; velvetleaf (40-50 seeds); rough pigweed (150-250 seeds); and large crabgrass (100-150 seeds).
(§2) Sufficient soil was added to cover the entire flat. Thus, the weed seeds were covered to a depth of about 6 mm. and the crop seeds were covered to a depth of about 3 cm.
(§3) In assaying the effect of the composition as preemergent herbicides, a flat prepared as above, taken either on the day of planting or on the next day, was placed in a chamber equipped with a turntable and an air exhaust. The herbicidal composition, either a spray-type emulsion or a wettable powder, was applied to the flat with a modified DeVilbiss atomizer hooked to an air source. Twelve and one-half milliliters of the composition under test were applied to each flat either on the day of planting or the succeeding day. Injury ratings and observations as to type of injury were made eleven to twelve days after treatment. The injury rating scale used was as follows:
(§4) 4--death When more than one determination was carried out at a given rate, an average value was calculated for the injury rating. Each compound evaluated was formulated as a spray by one of the following procedures. In one method the particular compound was wetted by grinding in a mortar with one part of polyoxyethylene sorbitan monolaurate. Five hundred parts of water were added slowly to the resultant creamy paste to give an aqueous dispersion with a surfactant concentration of 0.2 percent. This dispersion was entirely satisfactory for spray application. In a second procedure the compound was dissolved in one volume of acetone, and the acetone solution was diluted with nineteen volumes of water containing 0.1 percent of polyoxyethylene sorbitan monolaurate.
(§5) 6-Chloro-1-hydroxy-2-(trifluoromethyl)-1H-imidazo(4,5-b)pyridine was evaluated in combination with 2-chloro-4-ethylamino-6-isopropylamino-s-triazine and separately in combination with 2-chloro-2',6'-diethyl-N-(methoxymethyl)acetanilide for the control of plants. The evaluations were conducted as described in Examples 49-52, except that the rates of compound differed and the species were different. General herbicidal effect was rated on a scale of 0-10, with 0 = no injury and 10 = death. Observations were also made for the following other specific phytotoxic effects.

[2] = tested on: Johnson Grass; experiment: General herbicidal effect alone/in combination, Johnson grass
Protocol: as §1, §2, §3, §4, §5

[3] = tested on: Lambs Quarter; experiment: General herbicidal effect alone/in combination, lambsquarter; set-up: key: 0-10 scale: 0 = no injury, 10 = death
Protocol: as §1, §2, §3, §4, §5

[4] = tested on: Jimsonweed; experiment: General herbicidal effect alone/in combination, jimsonweed; set-up: key: 0-10 scale: 0 = no injury, 10 = death
Protocol: as §1, §2, §3, §4, §5

[5] = tested on: Ragweed; experiment: General herbicidal effect alone/in combination, ragweed; set-up: key: 0-10 scale: 0 = no injury, 10 = death
Protocol: as §1, §2, §3, §4, §5

[6] = tested on: Foxtail Millet; experiment: General herbicidal effect alone/in combination, foxtail millet; set-up: key: 0-10 scale: 0 = no injury, 10 = death
Protocol: as §1, §2, §3, §4, §5

[7] = tested on: Large Crabgrass; experiment: General herbicidal effect alone/in combination, large crabgrass; set-up: key: 0-10 scale: 0 = no injury, 10 = death
Protocol: as §1, §2, §3, §4, §5

[8] = tested on: Morning glory; experiment: General herbicidal effect alone/in combination, morning glory; set-up: key: 0-10 scale: 0 = no injury, 10 = death
Protocol: as §1, §2, §3, §4, §5

[9] = tested on: Barnyard Grass; experiment: General herbicidal effect alone/in combination, barnyard grass; set-up: key: 0-10 scale: 0 = no injury, 10 = death
Protocol: as §1, §2, §3, §4, §5

[10] = tested on: Corn; experiment: General herbicidal effect alone/in combination, corn (second Corn column); set-up: key: 0-10 scale: 0 = no injury, 10 = death
Protocol: as §1, §2, §3, §4, §5

[11] = tested on: Velvet Leaf; experiment: General herbicidal effect alone/in combination, velvetleaf; set-up: key: 0-10 scale: 0 = no injury, 10 = death
Protocol: as §1, §2, §3, §4, §5

[12] = tested on: Pigweed; experiment: General herbicidal effect alone/in combination, pigweed; set-up: key: 0-10 scale: 0 = no injury, 10 = death
Protocol: as §1, §2, §3, §4, §5

[13] = tested on: Corn; experiment: General herbicidal effect alone/in combination, corn (first Corn column); set-up: key: 0-10 scale: 0 = no injury, 10 = death
Protocol: as §1, §2, §3, §4, §5

[14] = tested on: Sorghum; experiment: General herbicidal effect alone/in combination, sorghum; set-up: key: 0-10 scale: 0 = no injury, 10 = death
Protocol: as §1, §2, §3, §4, §5

In the case of CCc1cccc(CC)c1N(COC)C(=O)CCl [C, 2-chloro-2',6'-diethyl-N-(methoxymethyl)acetanilide], the “herbicidal effect, Rice” value ([1]; 0.5 lbs/A) is reported as 0, the “herbicidal effect, Rice” value ([1]; 1.0 lbs/A) is reported as 9RS and the “herbicidal effect, Rice” value ([1]; 2.0 lbs/A) is reported as 10N. For the same molecule, the “herbicidal effect, Rice” value ([1]; 4.0 lbs/A) was 10N, the “herbicidal effect, Johnson Grass” value ([2]; 0.5 lbs/A) was 9RS and the “herbicidal effect, Johnson Grass” value ([2]; 1.0 lbs/A) was 9RS. The “herbicidal effect, Johnson Grass” value ([2]; 2.0 lbs/A) was 9.5RS, the “herbicidal effect, Johnson Grass” value ([2]; 4.0 lbs/A) was 10N and the “herbicidal effect, Lambs Quarter” value ([3]; 1.0 lbs/A) was 5S. For the same molecule, the “herbicidal effect, Lambs Quarter” value ([3]; 2.0 lbs/A) was 10N, the “herbicidal effect, Lambs Quarter” value ([3]; 4.0 lbs/A) was 10N and the “herbicidal effect, Jimsonweed” value ([4]; 0.5 lbs/A) was 0. For the same molecule, the “herbicidal effect, Jimsonweed” value ([4]; 1.0 lbs/A) was 3S, the “herbicidal effect, Jimsonweed” value ([4]; 2.0 lbs/A) was 4S and the “herbicidal effect, Jimsonweed” value ([4]; 4.0 lbs/A) was 5S. For the same molecule, the “herbicidal effect, Ragweed” value ([5]; 0.5 lbs/A) was 0, the “herbicidal effect, Ragweed” value ([5]; 1.0 lbs/A) was 5S and the “herbicidal effect, Ragweed” value ([5]; 2.0 lbs/A) was 7S. For the same molecule, the “herbicidal effect, Ragweed” value ([5]; 4.0 lbs/A) was 8SR, the “herbicidal effect, Foxtail Millet” value ([6]; 0.5 lbs/A) was 9SBR and the “herbicidal effect, Foxtail Millet” value ([6]; 1.0 lbs/A) was 9RSB. For the same molecule, the “herbicidal effect, Foxtail Millet” value ([6]; 2.0 lbs/A) was 9.5RSB, the “herbicidal effect, Foxtail Millet” value ([6]; 4.0 lbs/A) was 10D and the “herbicidal effect, Large Crabgrass” value ([7]; 0.5 lbs/A) was 8RS. The “herbicidal effect, Large Crabgrass” value ([7]; 1.0 lbs/A) was 9RS, the “herbicidal effect, Large Crabgrass” value ([7]; 2.0 lbs/A) was 10N and the “herbicidal effect, Large Crabgrass” value ([7]; 4.0 lbs/A) was 10N. The “herbicidal effect, Morning glory” value ([8]; 0.5 lbs/A) was 0, the “herbicidal effect, Morning glory” value ([8]; 1.0 lbs/A) was 2S and the “herbicidal effect, Morning glory” value ([8]; 2.0 lbs/A) was 2SF. The “herbicidal effect, Morning glory” value ([8]; 4.0 lbs/A) was 3SF, the “herbicidal effect, Barnyard Grass” value ([9]; 0.5 lbs/A) was 5SR and the “herbicidal effect, Barnyard Grass” value ([9]; 1.0 lbs/A) was 8S. For the same molecule, the “herbicidal effect, Barnyard Grass” value ([9]; 2.0 lbs/A) was 8RSF, the “herbicidal effect, Barnyard Grass” value ([9]; 4.0 lbs/A) was 9.5RS and the “herbicidal effect, Corn” value ([10]; 0.5 lbs/A) was 0. The “herbicidal effect, Corn” value ([10]; 1.0 lbs/A) was 0, the “herbicidal effect, Corn” value ([10]; 2.0 lbs/A) was 1SB and the “herbicidal effect, Corn” value ([10]; 4.0 lbs/A) was 2S. For the same molecule, the “herbicidal effect, Velvet leaf” value ([11]; 0.5 lbs/A) was 2S, the “herbicidal effect, Velvet leaf” value ([11]; 1.0 lbs/A) was 3S and the “herbicidal effect, Velvet leaf” value ([11]; 2.0 lbs/A) was 6S. The “herbicidal effect, Velvet leaf” value ([11]; 4.0 lbs/A) was 3S, the “herbicidal effect, Pigweed” value ([12]; 0.5 lbs/A) was 7S and the “herbicidal effect, Pigweed” value ([12]; 1.0 lbs/A) was 8SR. For the same molecule, the “herbicidal effect, Pigweed” value ([12]; 2.0 lbs/A) was 10N, the “herbicidal effect, Pigweed” value ([12]; 4.0 lbs/A) was 10N and the “herbicidal effect, Corn” value ([13]; 0.5 lbs/A) was 0. The “herbicidal effect, Corn” value ([13]; 1.0 lbs/A) was 0, the “herbicidal effect, Corn” value ([13]; 2.0 lbs/A) was 2S and the “herbicidal effect, Corn” value ([13]; 4.0 lbs/A) was 2S. For the same molecule, the “herbicidal effect, Sorghum” value ([14]; 0.5 lbs/A) was 3SF, the “herbicidal effect, Sorghum” value ([14]; 1.0 lbs/A) was 4SF and the “herbicidal effect, Sorghum” value ([14]; 2.0 lbs/A) was 8SF. The “herbicidal effect, Sorghum” value ([14]; 4.0 lbs/A) was 8SFR.

CCNc1nc(Cl)nc(NC(C)C)n1 [B, 2-chloro-4-ethylamino-6-isopropylamino-s-triazine] was tested, and the “herbicidal effect, Rice” value ([1]; 0.25 lbs/A) was 4B, the “herbicidal effect, Rice” value ([1]; 0.5 lbs/A) was 4B and the “herbicidal effect, Rice” value ([1]; 1.0 lbs/A) was 7B. For the same molecule, the “herbicidal effect, Rice” value ([1]; 2.0 lbs/A) was 8B, the “herbicidal effect, Johnson Grass” value ([2]; 0.25 lbs/A) was 3S and the “herbicidal effect, Johnson Grass” value ([2]; 0.5 lbs/A) was 0. The “herbicidal effect, Johnson Grass” value ([2]; 1.0 lbs/A) was 0, the “herbicidal effect, Johnson Grass” value ([2]; 2.0 lbs/A) was 2S and the “herbicidal effect, Lambs Quarter” value ([3]; 0.25 lbs/A) was 9BS. The “herbicidal effect, Lambs Quarter” value ([3]; 0.5 lbs/A) was 9BS, the “herbicidal effect, Lambs Quarter” value ([3]; 1.0 lbs/A) was 9.5BS and the “herbicidal effect, Lambs Quarter” value ([3]; 2.0 lbs/A) was 9.5BS. The “herbicidal effect, Jimsonweed” value ([4]; 0.25 lbs/A) was 9BS, the “herbicidal effect, Jimsonweed” value ([4]; 0.5 lbs/A) was 9BS and the “herbicidal effect, Jimsonweed” value ([4]; 1.0 lbs/A) was 9BS. For the same molecule, the “herbicidal effect, Jimsonweed” value ([4]; 2.0 lbs/A) was 9BS, the “herbicidal effect, Ragweed” value ([5]; 0.25 lbs/A) was 5S and the “herbicidal effect, Ragweed” value ([5]; 0.5 lbs/A) was 7SB. The “herbicidal effect, Ragweed” value ([5]; 1.0 lbs/A) was 8BS, the “herbicidal effect, Ragweed” value ([5]; 2.0 lbs/A) was 10D and the “herbicidal effect, Foxtail Millet” value ([6]; 0.25 lbs/A) was 0. The “herbicidal effect, Foxtail Millet” value ([6]; 0.5 lbs/A) was 0, the “herbicidal effect, Foxtail Millet” value ([6]; 1.0 lbs/A) was 4SB and the “herbicidal effect, Foxtail Millet” value ([6]; 2.0 lbs/A) was 5SB. For the same molecule, the “herbicidal effect, Large Crabgrass” value ([7]; 0.25 lbs/A) was 0, the “herbicidal effect, Large Crabgrass” value ([7]; 0.5 lbs/A) was 2S and the “herbicidal effect, Large Crabgrass” value ([7]; 1.0 lbs/A) was 5S. For the same molecule, the “herbicidal effect, Large Crabgrass” value ([7]; 2.0 lbs/A) was 6BS, the “herbicidal effect, Morning glory” value ([8]; 0.25 lbs/A) was 8BS and the “herbicidal effect, Morning glory” value ([8]; 0.5 lbs/A) was 9BS. For the same molecule, the “herbicidal effect, Morning glory” value ([8]; 1.0 lbs/A) was 10D, the “herbicidal effect, Morning glory” value ([8]; 2.0 lbs/A) was 10D and the “herbicidal effect, Barnyard Grass” value ([9]; 0.25 lbs/A) was 2S. For the same molecule, the “herbicidal effect, Barnyard Grass” value ([9]; 0.5 lbs/A) was 5SB, the “herbicidal effect, Barnyard Grass” value ([9]; 1.0 lbs/A) was 4SB and the “herbicidal effect, Barnyard Grass” value ([9]; 2.0 lbs/A) was 8BS. The “herbicidal effect, Corn” value ([10]; 0.25 lbs/A) was 0, the “herbicidal effect, Corn” value ([10]; 0.5 lbs/A) was 0 and the “herbicidal effect, Corn” value ([10]; 1.0 lbs/A) was 0. For the same molecule, the “herbicidal effect, Corn” value ([10]; 2.0 lbs/A) was 0, the “herbicidal effect, Velvet leaf” value ([11]; 0.25 lbs/A) was 3S and the “herbicidal effect, Velvet leaf” value ([11]; 0.5 lbs/A) was 3S. The “herbicidal effect, Velvet leaf” value ([11]; 1.0 lbs/A) was 7BS, the “herbicidal effect, Velvet leaf” value ([11]; 2.0 lbs/A) was 10D and the “herbicidal effect, Pigweed” value ([12]; 0.25 lbs/A) was 9BS. For the same molecule, the “herbicidal effect, Pigweed” value ([12]; 0.5 lbs/A) was 10D, the “herbicidal effect, Pigweed” value ([12]; 1.0 lbs/A) was 10D and the “herbicidal effect, Pigweed” value ([12]; 2.0 lbs/A) was 10D. For the same molecule, the “herbicidal effect, Corn” value ([13]; 0.25 lbs/A) was 0, the “herbicidal effect, Corn” value ([13]; 0.5 lbs/A) was 0 and the “herbicidal effect, Corn” value ([13]; 1.0 lbs/A) was 0. For the same molecule, the “herbicidal effect, Corn” value ([13]; 2.0 lbs/A) was 0, the “herbicidal effect, Sorghum” value ([14]; 0.25 lbs/A) was 0 and the “herbicidal effect, Sorghum” value ([14]; 0.5 lbs/A) was 0. The “herbicidal effect, Sorghum” value ([14]; 1.0 lbs/A) was 1B and the “herbicidal effect, Sorghum” value ([14]; 2.0 lbs/A) was 2B.
